Laboratory results taken from patent US6642365B1, “Anti-(retro)viral conjugates of saccharides and acetamidino or guanidino compounds” (Yeda Research and Development Co. Ltd., priority 2001, dated 2003).

Assays:
HIV-1 2D = format: cell-based
Experimental: (§1) T-tropic HIV-1 laboratory strains IIIb, 2D as well as AZT-resistant and UC781-resistant strains were utilized in this study, along with clinical isolate (clade C). HIV-1 clinical isolate, resistant to AZT is a generous gift from Dr. Mark A. Wainberg, McGill AIDS Center, McGill University, Montreal, Canada.
(§2) MT-2 or MT-4 cells were cultured in RPMI 1640 supplemented with 10% fetal calf serum (FCS), 0.2 mM glutamine and penicilline/streptomycin/nistatin mixture. The cells were propagated in 96-well tissue culture plates at the density of 5×10^4 cells per well. Peripheral mononuclear blood cells (PMBC) were separated from whole blood samples by centrifugation in Ficoll gradient for 10 min at 400 g. PMBC were cultured in the same medium in 24-well tissue culture plates at the density of about 10^6 cells per well.

[1] = test system: HIV-1 clinical isolate (clade C); test: Anti-HIV assay, syncytium formation and tetrazolium colorimetric assay; format: cell-based
Experimental: as §1, §2

HIV-1 IIIB = test: as above; format: cell-based; details: range over IIIb, 2D, AZT resistant, UC781 resistant and clade C HIV-1
Experimental: as §1, §2

[2] = test system: HIV-1 clinical isolate, resistant to AZT; test: as above; format: cell-based; details: average of two independent experiments in duplicates; read-out: EC50 HIV-1 AZTres
Experimental: as §1, §2

[3] = test system: MT-2 cells as well as PMBC lines ETH and IS; details: ratio CC50/EC50
Experimental: (§3) The cells were infected by incubation with different titers of the HIV-1 strains for 2 hrs at 37° C. in the presence or absence of the AAC of the invention. Then the cells were washed from the virus by centrifugation at 400 g and the supernatants were discarded. The cells were resuspended in culture medium, supplemented with different concentrations of the test compounds. The cells were allowed to proliferate for 5 days, the number of viable cells was quantified by a tetrazolium-based colorimetric method (CellTiter 96® AQueous One solution Cell Proliferation Assay, Promega). Anti-HIV activity in P4-CCR5 MAGI cells was done as follows: cells (1×10^5/ml) were infected with 10 ng/ml of p24 antigen of HIV-1 Ba-L in the presence of varying concentrations of the test compound. 24 hours post infection, cells were washed twice with PBS and resuspended in the medium containing the appropriate drug concentration. Five days after infection the cells were washed with PBS and evaluated for β-galactosidase activity.

TAR RNA = test: RNase A footprinting of TAR RNA; format: binding, HIV-1; details: 1 μM TAR, 200 pM RNase A
Experimental: In a typical experiment 10 μl of 5 mM cacodylate buffer pH 6.5, containing 25 mM KCl and 50-100 ng 5′ ^32P-labeled TAR RNA (approximately 0.5-1 μM) were incubated with 200 pM RNase A (Sigma) at room temperature for 10 minutes in the presence of Tat R52 and the conjugates of the invention at various concentrations. In the competition experiments, the mixture was supplemented with 0.5 μg yeast tRNA (Sigma). After the incubation, 10 μl of formamide/bromphenol blue loading buffer was added to the samples. The samples were heated to 80° C. for 2 min and were resolved by electrophoresis on 40 cm×0.8 mm 20% polyacrylamide denaturing gel (7M urea) for 3 hours at 55° C. The results were visualized by a phosphoimager as described above and quantitated using ImageQuant software.
TAR RNA and RNase A concentrations were established by co-titration. To produce a “single-hit” kinetics conditions, 1 μM TAR versus 200 pM RNase A were selected. Tat R52 and AAC concentrations were determined by titration. […] RNase A cleaved TAR RNA in an uneven manner (FIG. 4A., lane 2). The most susceptible regions for cleavage were the single-stranded loop, nucleotides U31-G34 as well as C24 and U25 of the bulge. Strong cleavage was also observed at G21-G41 and A20-U42 pairs (lower stem). Binding of R52 (2-4 μM) caused a weakening of the bands in the upper stem region, (G26-C39, A27-C38, as well as U40) (FIG. 4A., lanes 3, 4). At 4 μM R52, the cleavage at G34 (loop) was enhanced, as well as a certain enhancement of bands A20, G21, U23 and U25 was observed. Remarkably, the band corresponding to the R52-TAR complex still was observed on the gels even after electrophoresis under strongly denaturing conditions. In the presence of R4K (10-20 μM), the upper stem (G26-C29), the lower stem and the bulge (G21-U23, partially C24 and U25) were protected as well as C38, C39 and U40. Cleavage at C19 and A20 of the lower stem and C30, G33 and G34 of the loop was enhanced by 10 μM R4K, whereas with 20 μM R4K the protection of C30, G34 and A20-G21 was observed (FIG. 4A., lanes 5, 6). […] Cleavages at C19-A20 in the lower stem as well as at G30 and G34 in the loop were observed (FIG. 4A., lanes 7, 8). In the presence of GB4K (20 μM) no significant protection was observed.

MT-4 cells = test: Cytotoxicity in MT-4 cells, MTT; format: cell-based, human; details: viability of MT-4 cells, MTT assay
Experimental: as §3

[4] = average of two independent experiments in duplicates

| Molecule | antiviral effect in the presence of AZT (HIV-1 2D; HIV-1 2D and clade C) | EC50 (HIV-1 2D; [4]) [µM] | inhibition of virus growth ([1]; MT-2 cells infected in presence of 20 μM R3G or 10 μM NeoR, then 3 days without AAC) [%] | EC50 [1, 4] [µM] | EC50 (HIV-1 IIIB) [µM] | EC50 [2] [µM] | TI50 [3] | concentration giving effective protection of TAR (TAR RNA) [µM] | CC50 (MT-4 cells) [µM] |
| --- | --- | --- | --- | --- | --- | --- | --- | --- | --- |
| Triargininamido-gentamicin conjugate [R3G] | additive | 10 | 30 | 6 | 6 to 10 | 8 | 50-85 | 4 | – |
| N=C(N)NCCCC(N)C(=O)NCC1OC(OC2C(NC(=O)C(N)CCCNC(=N)N)CC(NC(=O)C(N)CCCNC(=N)N)C(OC3OC(CO)C(O)C(NC(=O)C(N)CCCNC(=N)N)C3O)C2O)C(O)C(O)C1O (stereo not shown) [R4K, Tetraargininamido-kanamycin A conjugate] | – | – | – | – | – | – | – | 10 | > 1130 |
